This assay concerns the target T1, Japanin (Rhipicephalus appendiculatus, UniProt M1MR49).
T1 construct: polyhistidine-tagged recombinant secretory lipocalin, Sf9 baculovirus; 18 kDa; N-glycosylated at Asn35 and Asn131; homodimer; disulphides Cys28-Cys150, Cys114-Cys138; modelled residues 1-154
T1 sequence (M1MR49 25-176): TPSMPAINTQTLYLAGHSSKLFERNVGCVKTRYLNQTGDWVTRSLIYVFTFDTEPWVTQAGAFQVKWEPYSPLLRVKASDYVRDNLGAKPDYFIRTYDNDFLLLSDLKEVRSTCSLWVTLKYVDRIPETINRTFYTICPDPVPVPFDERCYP
Nature of the assay: X-ray crystallography ([…] and […] Å). Format: binding. As to conditions: co-purified ligand, no cholesterol added; one per monomer in closed lipocalin barrel pocket; crystals pH 6.9-7.2 (4boe) and pH 4.5 (4bqu), 21 °C.

Consider `CC(C)CCC[C@@H](C)[C@H]1CC[C@H]2[C@@H]3CC=C4C[C@@H](O)CC[C@]4(C)[C@H]3CC[C@]12C` [CLR, cholesterol], for which the “X-ray crystallography (2.2 and 2.4 Å)” value is listed as “each molecule in the crystals binds one molecule of cholesterol”.
